Data on one compound can be found in patent publication US20220226369A1, “ETHANOL HARDENER AND USE THEREOF” (priority 2019, published 2022).

Molecules are shown by their SMILES.

Series [1] is described as follows: Viscosity test by capillary viscometer. As to conditions: 20° C. The class given is physicochemical. The method, then:
The viscosity of Examples 1, 5 and 7 and ethanol was measured by a capillary viscometer at an ambient temperature of 20° C. The capillary diameter was 0.5-0.6 mm and the viscometer constant was 0.005085 mm^2/s^2. The time difference of liquid passing through the capillary was recorded.
Viscosity=time difference×viscometer constant

A further series deals with rabbit ear vein. The series can be described thus: Embolic effect in rabbit ear vein. The class given is in vivo, rabbits. The settings on record: 0.1 mL injected, after one-month recovery, India ink. How it is done:
Sixty healthy male rabbits with body weight of 2.5±0.2 kg were selected and divided into 6 groups of 10. The rabbits were anesthetized with a 3% sodium pentobarbital solution by intraperitoneal injection at 0.8 mL/kg. An anticoagulated and disinfected PE-8 catheter (0.20 mm×0.36 mm) was inserted into the distal end of the ear vein, until the end of the catheter reached the midpoint of the ear vein. The in-vitro end of the catheter was connected with a 1-mL syringe through a cannula.
0.1 mL of each of the sclerosing agents of various embodiments with different components was injected at a constant speed through the PE-8 catheter. After 30 seconds, the catheter was slowly and gently withdrawn, and a cotton pad was used for hemostasis. Both left and right ears of the animals were treated with the same procedures. The animals after sclerosing treatment were accommodate in individual cages. After a one-month recovery period, after visual inspection, a normal saline containing India ink was slowly injected at the distal end of the ear vein, so as to observe and record whether the blood vessels were completely embolized. The embolization ratio in each group was recorded (Table 2).

With `CCO` [Ethanol, ethanol], in series [1] (capillary diameter 0.5-0.6 mm), the Time difference is 245 s. In series [1] (viscometer constant 0.005085 mm^2/s^2), this compound yielded a Viscosity of 1.25 mm^2/s. Besides, the “Ratio of completely embolized vessels” value in the series with rabbit ear vein was 60% (12/20).
